In test [1] the target is T1, Growth factor receptor-bound protein 2 (Homo sapiens, UniProt P62993). The test is described as follows: In vitro binding affinity in whole cells for Grb2 SH2 domain. It is filed as cell-based.
For test [2], the target named is T1, Growth factor receptor-bound protein 2. Briefly: In vitro binding affinity for Grb2 SH2 domain.
A further test concerns MDA-MB-453. Briefly: Inhibition of growth-factor-stimulated MDA-MB-453 breast cancer cell proliferation. The class given is functional, cell-based. As to conditions: Homo sapiens.
The target in test [3] is T1, Growth factor receptor-bound protein 2. The test is described as follows: Inhibition of Grb2 SH2 domain binding to erbB-2.
For test [4] the target is unchanged. The test is described as follows: In vitro binding affinity in extracellular ELISA-based assay for Grb2 SH2 domain. In general terms: An ELISA detects its analyte on a solid surface through an enzyme-linked reagent.

The record followed here is ChEMBL document CHEMBL1137084, “Synthesis of a 5-methylindolyl-containing macrocycle that displays ultrapotent Grb2 SH2 domain-binding affinity” (J Med Chem, 2004).

A word on the IC50: it is the concentration needed to halve the response being measured. As a reminder, the Kd is the constant that tells how readily two partners part at equilibrium. Low values mean a tighter complex, high ones a looser complex.

T1 sequence (P62993 whole entry, the tested form may be a part): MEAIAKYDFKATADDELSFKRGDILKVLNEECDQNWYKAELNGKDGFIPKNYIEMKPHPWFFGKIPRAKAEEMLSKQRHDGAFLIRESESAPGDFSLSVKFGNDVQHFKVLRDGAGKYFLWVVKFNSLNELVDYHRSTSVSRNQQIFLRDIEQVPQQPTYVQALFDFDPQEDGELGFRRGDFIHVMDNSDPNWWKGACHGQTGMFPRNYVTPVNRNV

Take `NC(=O)C[C@@H]1NC(=O)C2(CCCCC2)NC(=O)C[C@@H](c2ccc(CP(=O)(O)O)cc2)/C=C/C[C@@H](Cc2cccc3ccccc23)CNC1=O`: the IC50 in test [1] was no less than 10000 nM. As to `Cc1ccc2c(ccn2C[C@@H]2C/C=C/[C@H](c3ccc(CP(=O)(O)O)cc3)[C@H](CC(=O)O)C(=O)NC3(CCCCC3)C(=O)N[C@@H](CC(N)=O)C(=O)NC2)c1` [listing 1 of 2 here], the Kd in test [2] was determined as 0.093 nM. The concentration for half-maximal inhibition (IC50) is 600 nM in the test with MDA-MB-453 and no more than 10 nM in test [3]. Regarding `NC(=O)C[C@@H]1NC(=O)C2(CCCCC2)NC(=O)[C@@H](CC(=O)O)[C@@H](c2ccc(CP(=O)(O)O)cc2)/C=C/C[C@@H](Cc2cccc3ccccc23)CNC1=O`, the IC50 is no more than 1000 nM in test [1] and 2 nM in test [4].

Compound `Cc1ccc2c(ccn2C[C@@H]2C/C=C/[C@H](c3ccc(CP(=O)(O)O)cc3)[C@H](CC(=O)O)C(=O)NC3(CCCCC3)C(=O)N[C@@H](CC(N)=O)C(=O)NC2)c1` [listing 2 of 2 here] registered a Kd in test [2] of 0.075 nM.
